Source: ChEMBL document CHEMBL3351876 (Eur J Med Chem, 2014)

Legend:
Plasmodium falciparum = experiment: Antimalarial activity against chloroquine-resistant ring stage Plasmodium falciparum W2 assessed as parasitemia after 48 hrs by flow cytometry; type: functional, organism-based; conditions: W2, 48 h
Heme = experiment: Binding affinity to heme assessed as inhibition of beta-haemozoin formation by UV-vis spectra analysis
HeLa = experiment: Cytotoxicity against human HeLa cells after 24 hrs by trypan blue exclusion assay; type: cell-based
[1] = Selectivity index, ratio of CC50 for human HeLa cells to IC50 for chloroquine-resistant ring stage Plasmodium falciparum W2; type: functional

Compound	IC50 (Plasmodium falciparum) [µM]	IC50 (Heme) [µM]	IC50 (HeLa) [µM]	Ratio IC50 [1]
CCCCNC(=S)N[C@@H]1C(=O)N(c2ccc(C)cc2)[C@@H]1/C=C/c1ccccc1	> 10	–	–	–
Cc1ccc(N2C(=O)[C@@H](NC(=S)NCC(C)C)[C@H]2/C=C/c2ccccc2)cc1	> 10	–	–	–
Cc1ccc(NC(=S)N[C@@H]2C(=O)N(c3ccc(C)cc3)[C@@H]2/C=C/c2ccccc2)cc1	> 10	–	–	–
Cc1ccc(N2C(=O)[C@@H](NC(=S)NC3CCCCC3)[C@H]2/C=C/c2ccccc2)cc1	> 10	–	–	–
Cc1ccc(N2C(=O)[C@@H](NC(=S)Nc3ccc(F)cc3)[C@H]2/C=C/c2ccccc2)cc1	> 10	–	–	–
CCCCN1C(=O)/C(=C/C=C/c2ccccc2)NC1=S	> 10	–	–	–
CC(C)CN1C(=O)/C(=C/C=C/c2ccccc2)NC1=S	> 10	–	–	–
Cc1ccc(N2C(=O)/C(=C/C=C/c3ccccc3)NC2=S)cc1	> 10	–	–	–
O=C1/C(=C/C=C/c2ccccc2)NC(=S)N1C1CCCCC1	> 10	–	–	–
O=C1/C(=C/C=C/c2ccccc2)NC(=S)N1c1ccc(F)cc1	> 10	–	–	–
Cc1ccc(N2C(=O)[C@H](NC(=S)Nc3ccnc4cc(Cl)ccc34)[C@@H]2/C=C/c2ccccc2)cc1	> 10	–	–	–
O=C1[C@H](NC(=S)Nc2ccnc3cc(Cl)ccc23)[C@H](/C=C/c2ccccc2)N1C1CCCCC1	6.13	–	–	–
O=C1[C@H](NC(=S)Nc2ccnc3cc(Cl)ccc23)[C@H](/C=C/c2ccccc2)N1c1ccc(Cl)cc1	8.75	–	–	–
O=C1[C@H](NC(=S)Nc2ccnc3cc(Cl)ccc23)[C@H](/C=C/c2ccccc2)N1c1ccc(F)cc1	> 10	–	–	–
O=C1[C@H](NC(=S)Nc2ccnc3cc(Cl)ccc23)[C@H](/C=C/c2ccccc2)N1c1ccccc1	> 10	–	–	–
O=C1[C@H](NC(=S)Nc2ccnc3cc(Cl)ccc23)[C@H](/C=C/c2ccccc2)N1c1ccc(Br)cc1	5.72	–	–	–
O=C1/C(=C/C=C/c2ccccc2)NC(=S)N1CCNc1ccnc2cc(Cl)ccc12	0.0398	13.9	72	1807
O=C1/C(=C/C=C/c2ccccc2)NC(=S)N1CCCNc1ccnc2cc(Cl)ccc12	0.0425	19.9	91	2139
O=C1/C(=C/C=C/c2ccccc2)NC(=S)N1CCCCNc1ccnc2cc(Cl)ccc12	0.0572	28.4	> 100	>1747
O=C1/C(=C/C=C/c2ccccc2)NC(=S)N1CCCCCCNc1ccnc2cc(Cl)ccc12	0.387	–	–	–
NCCN1C(=O)/C(=C/C=C/c2ccccc2)NC1=S	> 10	–	–	–
